This is an account of results in patent US9545119B2, “Specific vanillyl lignans and use thereof as taste improvers” (SYMRISE AG, priority 2011, dated 2017).

Marks after values point to notes of the source that are not given here.

Common to all, as to format: in vivo
Experiment [1] relates to caffeine solution containing 500 ppm. Kind of experiment: Bitterness reduction in a bitter substance solution (expert panel), caffeine. As to conditions: for Bitterness impression (on scale of 1-10) b) with test substance: 25 ppm test substance + 500 ppm caffeine, scale 1 (not bitter) to 10 (extremely bitter), panel mean; for Effect on bitterness (in words): statement in the description referring to Example 1; for Reduction in the bitterness impression: * = significant. The text has this: (§1) In order to quantify a reduction in the bitterness impression in a sample, the bitterness of a caffeine solution containing 500 ppm was compared by a panel of experts, in each case with a sample containing 500 ppm caffeine and also the respectively given quantity of a substance to be assessed (with regard to the ability thereof to reduce bitterness), with assessment on a scale from 1 (not bitter) to 10 (extremely bitter). For the evaluation, i.e. the calculation of the reduction (in %) of the bitterness impression, in each case, the mean values of the estimates by the expert panel for the caffeine solution and the sample to be compared, which contained caffeine and a substance under assessment were used. In addition to caffeine, other bitter substances such as theobromine, naringin, quinine hydrochloride dihydrate and salicin were tested using the same method.

The test system of another experiment is 100 ppm naringin. As to the kind of experiment: Bitterness reduction in a bitter substance solution (expert panel), naringin. The conditions noted are these: for Reduction in the bitterness impression: 25 ppm test substance + 100 ppm naringin vs naringin alone, * = significant; for Bitterness impression (on scale of 1-10) b) with test substance: 25 ppm test substance + 100 ppm naringin, scale 1-10.
Excerpt: as §1

In experiment [2] the test system is 750 ppm epigallocatechin gallate (EGCG). As to the kind of experiment: Bitterness and astringency reduction in a bitter substance solution over time (expert panel). The conditions noted are these: 100 ppm test substance + 750 ppm EGCG; time 0 s.
Another experiment deals with 300 ppm theobromine. Kind of experiment: Bitterness reduction in a bitter substance solution (expert panel), theobromine. As to conditions: for Reduction in the bitterness impression: 25 ppm test substance + 300 ppm theobromine vs theobromine alone; for Bitterness impression (on scale of 1-10) b) with test substance: 25 ppm test substance + 300 ppm theobromine, scale 1-10.
Excerpt: as §1

Experiment [3] has as its system 750 ppm epigallocatechin gallate (EGCG). Kind of experiment: Bitterness and astringency reduction in a bitter substance solution over time (expert panel). As to conditions: 100 ppm test substance + 750 ppm EGCG. The text has this:
In order to quantify the reduction in the bitterness or astringency impression in a sample over a particular period of time, the bitterness or astringency of a solution containing 750 ppm epigallocatechin gallate (EGCG) was compared by a panel of experts, in each case with a sample containing 750 ppm epigallocatechin gallate and also the respectively shown quantity of a substance to be assessed (with regard to the ability thereof to reduce bitterness and/or astringency), in this case matairesinol (Compound 1-(−)).
Assessment was carried out on a scale from 1 (not bitter) to 10 (extremely bitter) or 1 (not astringent) to 10 (extremely astringent). The assessment by the panelists was carried out at specified time points (10 seconds, 30 seconds, 50 seconds and 70 seconds after ingestion of the respective sample). The samples were assessed by the panellists one after another following neutralisation. For the evaluation, i.e. the calculation of the reduction (in %) of the bitterness impression or astringency impression, at each time point, the mean values of the estimates by the expert panel for the epigallocatechin gallate solution and the sample to be compared therewith which contained the epigallocatechin gallate and the substance under assessment (in this case: matairesinol (Compound 1-(−)) were used.

For the next experiment, the system named is 250 ppm salicin. Kind of experiment: Bitterness reduction in a bitter substance solution (expert panel), salicin.
Excerpt: as §1

Experiment [4] deals with 5 ppm quinine hydrochloride dihydrate. Kind of experiment: Bitterness reduction in a bitter substance solution (expert panel), quinine hydrochloride dihydrate.
Excerpt: as §1

[5] abbreviates: 25 ppm test substance + 500 ppm caffeine vs 500 ppm caffeine alone.

For `COc1cc(C[C@@H](CO)[C@H](CO)Cc2ccc(O)c(OC)c2)ccc1O` [secoisolariciresinol, reference compound], the “Amplification of the bitterness impression (printed in column Reduction in the bitterness impression)” value in experiment [1] (25 ppm test substance + 500 ppm caffeine vs 500 ppm caffeine alone, comparative example) was determined as 34%. In addition, in experiment [1], the “Bitterness impression (on scale of 1-10) b) with test substance” value (“Bitterness impression … with test substance” below) is on record as 5.2 ± 2.6 and the “Effect on bitterness (in words)” value is given as “amplifies the bitterness”. Moreover, in experiment [1] (listed as Secoisolariciresinol), the “Effect on bitterness (in words)” value was “capable of amplifying bitter taste impressions”.

As for `COc1cc(C[C@H]2COC(=O)[C@@H]2Cc2ccc(O)c(OC)c2)ccc1O` [(−)-matairesinol (1-(−)), (3R,4R)-3,4-bis[(4-hydroxy-3-methoxyphenyl)methyl]oxolan-2-one], the “Reduction in the bitterness impression” value in experiment [1] (setting [5]) turned out to be 35.5%*; with 100 ppm naringin it was 15.1%; in the experiment with 300 ppm theobromine, 24.7%. Further, the entries for the “Bitterness impression … with test substance” value (in experiment [1]; with 100 ppm naringin; with 300 ppm theobromine) were 2.7 ± 1.77, 4.9 ± 2.38 and 3.4 ± 1.49, respectively. The “% Reduction in the astringency impression” value is −11% in experiment [2]; −10%* in experiment [3] (time 10 s); −15% in experiment [3] (time 30 s); −20% in experiment [3] (time 50 s); −23% in experiment [3] (time 70 s). Also, the “% reduction in the bitterness impression” value in experiment [2] is −15%; in experiment [3] (time 10 s), −30%*; in experiment [3] (time 30 s), −38%*; in experiment [3] (time 50 s), −33%*; in experiment [3] (time 70 s) it was −28%.

Regarding `COc1cc(C[C@H]2CO[C@H](c3ccc(O)c(OC)c3)[C@H]2CO)ccc1O` [(+)-lariciresinol (3-(+)), 4-[[(3R,4R,5S)-5-(4-hydroxy-3-methoxyphenyl)-4-(hydroxy-methyl)-oxolan-3-yl]methyl]-2-methoxyphenol], the “Reduction in the bitterness impression” value is reported as 17.1% in the experiment with 250 ppm salicin (25 ppm test substance + 250 ppm salicin vs salicin alone); 38.6%* in experiment [1] (setting [5]); 39.5%* in the experiment with 100 ppm naringin; 10.7% with 300 ppm theobromine; 30.9%* in experiment [4] (25 ppm test substance + 5 ppm quinine hydrochloride dihydrate vs quinine alone, * = significant). The “Bitterness impression … with test substance” value in the experiment with 250 ppm salicin (25 ppm test substance + 250 ppm salicin, scale 1-10) stood at 5.7 ± 2.97; in experiment [1], 2.9 ± 1.41; with 100 ppm naringin it was 3.6 ± 1.75; with 300 ppm theobromine it was 3.7 ± 2.24; in experiment [4] (25 ppm test substance + 5 ppm quinine hydrochloride dihydrate, scale 1-10), 2.5 ± 1.02.

As to `COc1cc(C[C@H]2C(=O)OC[C@@H]2[C@H](O)c2ccc(O)c(OC)c2)ccc1O` [(−)-hydroxymatairesinol(2-(−)), (3R,4R)-4-[(S)-hydroxy-(4-hydroxy-3-methoxy-phenyl)methyl]-3-[(4-hydroxy-3-methoxyphenyl)methyl]oxolan-2-one], in experiment [1] (setting [5]), the “Reduction in the bitterness impression” value is 41.9%*. Further, the “Bitterness impression … with test substance” value in experiment [1] is 2.6 ± 1.72.

Take `COc1cc(C[C@H]2C(=O)OC[C@@H]2Cc2ccc(OC)c(OC)c2)ccc1O` [(−)-arctigenin (4), (3R,4R)-4-[(3,4-dimethoxyphenyl)methyl]-3-[(4-hydroxy-3-methoxy-phenyl)methyl]oxolan-2-one]: in experiment [1] (setting [5]), the “Reduction in the bitterness impression” value was determined as 11.5%. The “Bitterness impression … with test substance” value in experiment [1] is on record as 2.8 ± 1.68.

Take `COc1cc([C@@H]2c3cc(O)c(OC)cc3C[C@H]3C(=O)OC[C@@H]23)ccc1O` [(−)-α-conidendrin (6-(−)), (3aR,9R,9aS)-7-hydroxy-9-(4-hydroxy-3-methoxyphenyl)-6-methoxy-3a,4,9,9a-tetrahydro-1H-benzo[f][2]benzofuran-3-one]: in experiment [1] (setting [5]), the “Reduction in the bitterness impression” value was found to be 20.8%. For the same compound, in experiment [1], the “Bitterness impression … with test substance” value came to 2.5 ± 0.94.

As for `COc1cc(C2c3cc(O)c(OC)cc3CC(CO)C2CO)ccc1O` (single isomer, unassigned; (+)) [(+)-isolariciresinol (5-(+)), 1,2,3,4-tetrahydro-7-hydroxy-1-(4-hydroxy-3-methoxy-phenyl)-6-methoxy-2,3-naphthalenedimethanol], the “Reduction in the bitterness impression” value in experiment [1] (setting [5]) is reported as 10.3%. In experiment [1], the “Bitterness impression … with test substance” value turned out to be 4.1 ± 2.21.
